{"source": "paper PMC3100585", "about": "(The Annals of pharmacotherapy, 2010)", "key": {"CYP3A4 [1]": {"tested_on": "CYP3A4", "assay": "Midazolam pharmacokinetics", "conditions": "for Midazolam AUC, median (dose normalized): 6 patients; for half-life: human, plasma, intravenous, 0.0145 mg/kg, Half-life of midazolam, median"}, "mouse NR1I2": {"target": "T1, mouse NR1I2 (Mus musculus, UniProt O54915)", "T1 sequence (O54915 1-431)": "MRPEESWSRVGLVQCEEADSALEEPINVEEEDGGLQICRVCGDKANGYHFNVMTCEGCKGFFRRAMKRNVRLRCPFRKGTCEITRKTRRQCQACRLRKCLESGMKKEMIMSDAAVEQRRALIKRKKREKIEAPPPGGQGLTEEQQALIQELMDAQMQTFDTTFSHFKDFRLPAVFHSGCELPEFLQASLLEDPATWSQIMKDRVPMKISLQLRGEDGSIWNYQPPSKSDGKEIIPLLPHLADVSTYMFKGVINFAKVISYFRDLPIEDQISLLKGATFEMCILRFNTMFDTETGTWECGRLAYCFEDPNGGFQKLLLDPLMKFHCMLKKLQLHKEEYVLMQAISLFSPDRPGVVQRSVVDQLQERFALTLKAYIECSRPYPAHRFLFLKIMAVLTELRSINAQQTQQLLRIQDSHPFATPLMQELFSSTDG", "assay": "Luciferase reporter gene assay, full-length mouse NR1I2", "type": "cell-based", "conditions": "HepG2 cells, 24 hours; vinblastine 150-4800 ng/mL; PCN 50 μM"}, "human NR1I2": {"target": "T2, human NR1I2 (Homo sapiens, UniProt O75469)", "T2 sequence (O75469 1-434)": "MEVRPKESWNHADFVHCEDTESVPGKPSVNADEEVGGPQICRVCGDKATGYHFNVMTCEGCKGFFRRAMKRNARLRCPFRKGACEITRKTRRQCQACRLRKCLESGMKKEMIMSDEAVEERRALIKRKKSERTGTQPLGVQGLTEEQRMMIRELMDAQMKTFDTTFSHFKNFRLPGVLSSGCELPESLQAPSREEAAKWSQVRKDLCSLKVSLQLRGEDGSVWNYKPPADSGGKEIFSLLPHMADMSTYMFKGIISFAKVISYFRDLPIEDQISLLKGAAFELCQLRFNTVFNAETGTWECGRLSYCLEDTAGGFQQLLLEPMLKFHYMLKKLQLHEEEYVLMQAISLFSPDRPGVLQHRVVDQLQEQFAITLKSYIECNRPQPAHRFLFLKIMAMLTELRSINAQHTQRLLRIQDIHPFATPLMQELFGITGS", "conditions": "HepG2 cells, 24 hours; vinblastine 150-4800 ng/mL; rifampin 10 μM"}, "human NR1I3": {"target": "T3, human NR1I3 (Homo sapiens, UniProt Q14994)", "T3 sequence (Q14994 1-348 isoform Q14994-2)": "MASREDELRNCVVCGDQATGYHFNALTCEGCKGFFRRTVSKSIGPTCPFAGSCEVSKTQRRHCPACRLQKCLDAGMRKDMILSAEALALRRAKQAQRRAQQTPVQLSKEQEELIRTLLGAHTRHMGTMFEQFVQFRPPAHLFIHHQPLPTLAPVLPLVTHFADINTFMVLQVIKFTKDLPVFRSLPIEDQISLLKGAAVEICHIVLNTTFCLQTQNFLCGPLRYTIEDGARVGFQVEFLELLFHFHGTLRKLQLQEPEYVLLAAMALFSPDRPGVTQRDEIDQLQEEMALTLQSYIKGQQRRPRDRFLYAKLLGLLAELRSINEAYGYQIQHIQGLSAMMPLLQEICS", "T3 sequence (P28700 1-467 partner)": "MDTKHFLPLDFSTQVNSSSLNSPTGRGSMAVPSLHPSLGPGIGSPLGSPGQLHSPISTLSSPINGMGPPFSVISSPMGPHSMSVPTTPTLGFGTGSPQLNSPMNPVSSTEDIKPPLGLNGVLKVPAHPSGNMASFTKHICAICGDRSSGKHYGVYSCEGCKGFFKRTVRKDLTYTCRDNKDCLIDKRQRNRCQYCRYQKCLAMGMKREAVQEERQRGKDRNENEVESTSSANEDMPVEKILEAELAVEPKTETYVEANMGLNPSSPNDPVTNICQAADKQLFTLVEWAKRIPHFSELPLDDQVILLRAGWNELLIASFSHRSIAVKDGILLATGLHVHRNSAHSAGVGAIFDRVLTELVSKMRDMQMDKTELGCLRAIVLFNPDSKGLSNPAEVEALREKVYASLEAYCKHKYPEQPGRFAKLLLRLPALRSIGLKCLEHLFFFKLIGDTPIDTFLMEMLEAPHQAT", "conditions": "NIH3T3 cells, 24 hours; vinblastine 150-4800 ng/mL"}, "mouse NR1I3": {"target": "T4, mouse NR1I3 (Mus musculus, UniProt O35627)", "T4 sequence (O35627 1-358)": "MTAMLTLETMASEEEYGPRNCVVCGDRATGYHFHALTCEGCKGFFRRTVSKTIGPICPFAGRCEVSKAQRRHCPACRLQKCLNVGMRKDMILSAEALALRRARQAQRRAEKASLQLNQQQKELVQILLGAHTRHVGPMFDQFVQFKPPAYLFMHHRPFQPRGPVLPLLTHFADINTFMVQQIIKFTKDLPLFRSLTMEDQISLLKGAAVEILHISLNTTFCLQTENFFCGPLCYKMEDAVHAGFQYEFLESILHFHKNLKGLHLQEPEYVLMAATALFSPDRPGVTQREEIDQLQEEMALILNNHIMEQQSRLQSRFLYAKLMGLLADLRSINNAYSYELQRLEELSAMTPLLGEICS", "conditions": "NIH3T3 cells, 24 hours; vinblastine 150-4800 ng/mL"}, "CYP3A4 [2]": {"tested_on": "CYP3A4", "conditions": "cited from earlier work"}, "[3]": {"tested_on": "CYP3A4 protein in HepG2 cells", "assay": "CYP3A4 protein expression by Western blot in HepG2 cells", "type": "cell-based, human", "conditions": "48 hours, vinblastine 300 ng/mL and above (range 150-4800 ng/mL)"}}, "note": "“And” between values parts separate entries of the source, which are not always exact repeats. Equal entries are not always repeated.", "data": [{"compound": "Cc1ncc2n1-c1ccc(Cl)cc1C(c1ccccc1F)=NC2", "note": "[midazolam]", "values": [{"measurement": "Midazolam AUC, median (dose normalized)", "setting": "CYP3A4 [1]; day 1 of cycle 1", "result": 46.4, "unit": "ng·h/mL per mg"}, {"measurement": "Midazolam AUC, median (dose normalized)", "setting": "CYP3A4 [1]; day 1 of cycle 4, after repeat vinblastine", "result": 31.0, "unit": "ng·h/mL per mg"}, {"measurement": "half-life", "setting": "CYP3A4 [1]; day 1 of cycle 1", "result": 152, "unit": "min"}, {"measurement": "half-life", "setting": "CYP3A4 [1]; day 1 of cycle 4", "result": 185, "unit": "min"}, {"measurement": "% ↑ Midazolam Cl", "setting": "CYP3A4 [1]; individual patients, cycle 4 vs cycle 1, after repeat vinblastine", "result": "51.7% and 35.9% and 216.7% and 2.5% and 46.9% and 6.9%"}, {"measurement": "Midazolam clearance relative to value prior to treatment with vinblastine", "setting": "CYP3A4 [1]; one patient, midazolam on 5 occasions over 1.3 years, end of period", "result": 3.6, "unit": "fold"}]}, {"compound": "C/C=C/C[C@@H](C)C(=O)[C@H]1C(=O)N[C@@H](C(C)C)C(=O)N(C)CC(=O)N(C)[C@@H](CC(C)C)C(=O)N[C@@H](C(C)C)C(=O)N(C)[C@@H](CC(C)C)C(=O)N[C@@H](C)C(=O)N[C@H](C)C(=O)N(C)[C@@H](CC(C)C)C(=O)N(C)[C@@H](CC(C)C)C(=O)N(C)[C@@H](C(C)C)C(=O)N1C", "note": "[valspodar]", "values": [{"measurement": "Increase in transcriptional (reporter) activity of mouse NR1I2", "setting": "mouse NR1I2", "result": "Increased activity of the reporter was not observed"}, {"measurement": "Increase in transcriptional (reporter) activity of human NR1I2", "setting": "human NR1I2", "result": "Increased activity of the reporter was not observed"}, {"measurement": "Effect on transcriptional activity of human NR1I3", "setting": "human NR1I3", "result": "Increased activity of the reporter was not observed"}, {"measurement": "Effect on transcriptional activity of mouse NR1I3", "setting": "mouse NR1I3", "result": "Increased activity of the reporter was not observed"}, {"measurement": "CYP3A4 inhibition", "setting": "CYP3A4 [2]", "result": "very weak CYP3A4 inhibitor"}]}, {"compound": "CC[C@]1(O)C[C@@H]2CN(CCc3c([nH]c4ccccc34)[C@@](C(=O)OC)(c3cc4c(cc3OC)N(C)[C@H]3[C@@](O)(C(=O)OC)[C@H](OC(C)=O)[C@]5(CC)C=CCN6CC[C@]43[C@@H]65)C2)C1", "note": "[vinblastine, Vinblastine]", "values": [{"measurement": "CYP3A4 protein expression compared to DMSO-treated control cells", "setting": "[3]", "result": "substantially increased CYP3A4 protein expression"}]}]}
